Assay results published in US20260232574A1, “COMPOSITIONS AND METHODS FOR TREATING DYSMENORRHEA” (Daré Bioscience, Inc., priority 2023, published 2026).

Assay: pH / titration curve of 4% diclofenac sodium in water
Format: physicochemical

pH of diclofenac in water (4% diclofenac sodium in water): around 7.8
buffering capacity to adjust the pH by 1 unit (strong acid or base): 0.625 mMoles
Compound: O=C(O)Cc1ccccc1Nc1c(Cl)cccc1Cl [diclofenac, 2-[2-(2,6-dichloroanilino)phenyl]acetic acid]
